Consider one compound from patent US8735375B2, “Therapeutic compositions” (Leo Laboratories Limited, priority 2005, dated 2014).

What all share (assay type): physicochemical
Data set [1] is described as follows: Stability study of I3A in solvents at 4-8° C. To be noted: 14 days. Here is the method:
The stability of I3A in various solvents at 4-8° C. was investigated. A stock solution of 1.26 mg of I3A was weighed out and dissolved in 2 ml acetone. This stock solution was used to prepare the stability samples as follows:
Aliquots of 100 μl of stock solution were transferred to individual glass HPLC vials via a Hamilton syringe, with careful rinsing and drying of the syringe between each sample. The samples were dried down by air jet and then 0.5 ml of the appropriate test solvent system added. The solvent systems were tested in triplicate and are listed below:
Blank samples were also prepared in triplicate using 100 μl of acetone in place of the stock solution. The blank samples were then dried down and 0.5 ml acetone added to each vial. The vials were all crimped, sealed with Parafilm® and placed at 4-8° C. for the duration of the stability study. HPLC analysis was performed on the samples on Day 0, Day 1, Day 5 and Day 14 of the stability study. The samples were prepared for the HPLC assay as described below:
The stability samples were removed from 4-8° C. and left at ambient temperature for 30 mins. Aliquots of 100 μl were transferred to fresh glass HPLC vials using a Hamilton syringe, with careful, rinsing and drying of the syringe between each sample. To facilitate drying of the samples, 0.5 ml of acetone was added to each vial and then the samples were dried down by air jet. The samples were reconstituted with 1 ml of acetonitrile and analysed by HPLC using the chromatographic conditions specified above.

Data set [2] in a line: Dilution of I3A with normal saline (isoform conversion). From the text: Oils may also be used in the present invention. The use of an emulsion based intralesional formulation has been reported for the treatment of psoriasis (Ho et al., 1990). Prior to administration, a vehicle, such as polyoxyethylated castor oil, is normally diluted with saline to form the emulsion. […] This conversion may be minimised if the administration time of the formulation is short.

A short description of data set [3]: Stability of I3A at various pH's (buffers). To be noted: room temperature. Here is the method:
The stability of I3A was investigated at pH 4.5 in two buffers i.e. monopotassium phosphate/disodium phosphate and acetic acid/ammonium acetate for 24 h at room temperature.

A short description of data set [4]: Kinetic solubility of I3A in 20% v/v ethanol/citrate buffer (pH 3.0). The note with it: aqueous with cosolvent or surfactant or cyclodextrin, kinetic from dmso stock, 25° C.
The nature of data set [5]: Preliminary stability of I3A in receiver fluid 20% v/v ethanol/citrate buffer (pH 3.0). The note with it: 37° C., after 18 h. Here is the method: The receiver fluid employed to try and maintain sink conditions was 20% v/v ethanol/citrate buffer (pH 3.0) and this was incorporated into the Franz cell and stirred constantly with a magnetic stirrer. Preliminary stability studies were conducted on I3A in 20% v/v ethanol/citrate buffer (pH 3.0) at 37° C. over ca. 18 h. […] For the purpose of the Franz cell study this was considered acceptable.

The nature of data set [6]: Preliminary stability of I3A in fractionated coconut oil. Here is the method: Approximately 10 mg of […] was accurately weighed into a 28 ml glass vial and added to approximately 200 mg of benzyl alcohol (exact weight noted), which had previously been filtered through a 0.22 μm MILLEX-GV filter. This mixture was periodically vortexed for approximately 2 h until the […] had dissolved in the benzyl alcohol. […] Aliquots of each formulation (placebo or active) were dispensed into 2 ml screw cap amber glass vials (borosilicate glass), sealed and stored at two storage conditions namely 2-8° C. and 25±2° C. […]

The nature of a further data set: Stability of I3A in DMSO. To be noted: 10 days. Here is the method:
I3A was investigated for stability in DMSO at room temperature and at 37° C. over a 10 day time period. A control sample of I3A in acetonitrile was kept under the same conditions as the test sample. The samples were analysed by HPLC at the start of the experiment (Day 0), after 48 hours (Day 2) and again after 10 days.
The chromatographic conditions employed were as follows: […]

Molecules are shown by their SMILES.

Turning to `C/C=C(/C)C(=O)O[C@H]1C(C)=C[C@]23C(=O)[C@H](C=C(CO)[C@@H](O)[C@]12O)[C@H]1[C@@H](C[C@H]3C)C1(C)C` [Formulation I3A, ingenol-3-angelate], the “stability (predominance of peak 'b')” value in data set [1] (100% v/v acetone) and in data set [1] (100% v/v acetonitrile) was “stable” each time. In addition, the isomer formation result in data set [1] (protic solvents (methanol, methanol/water, water)) is “formation of isomer ‘a’ and then isomer ‘c’ increases rapidly”. Also, in data set [2], the “conversion of isoform 'b' to 'a'” value is reported as “increases the conversion of isoform ‘b’ to ‘a’”. Further, in data set [3] (pH 4.5, monopotassium phosphate/disodium phosphate and acetic acid/ammonium acetate buffers, 24 h), the “stability (predominance of isoform 'b')” value was “stable”. Also, the stability result in data set [3] (pH 5.5, 6.5 and 7.0, 14 days) is “decrease with an increase in pH”; in “Stability of I3A in DMSO” (37° C.) it was “stable”; in the data set “Stability of I3A in DMSO” (room temperature) it was “stable”. Also, in data set [4], the kinetic solubility is 509.7 ± 3 µg/mL. Moreover, the “percentage peak area increase in isoform ‘a’” value in data set [5] was 0.26%. For the same compound, the “% I3A ‘a’ (isoform ‘a’ as a percentage of isoform ‘a’ and I3A ‘b’)” value in data set [6] (0.1% w/w I3A in fractionated coconut oil/2% benzyl alcohol, Time 0) was determined as 1.90%; in data set [6] (Fresh sample I3A in Acetonitrile at time zero) it was 2.50%. The “% I3A ‘a’” value in data set [6] (Fresh sample I3A in Acetonitrile at time 43 days) came out at 2.14%; in data set [6] (I3A in fractionated coconut oil formulation, Time 5 days (2-8° C.)) it was 1.86%; in data set [6] (I3A in fractionated coconut oil formulation, Time 5 days (25° C.)), 1.97%; in data set [6] (I3A in fractionated coconut oil formulation, Time 20 days (2-8° C.)) it was 1.94%; in data set [6] (I3A in fractionated coconut oil formulation, Time 20 days (25° C.)), 1.93%; in data set [6] (I3A in fractionated coconut oil formulation, Time 28 days (2-8° C.)), 1.93%. Besides, the “% I3A ‘a’” value was 1.94% in data set [6] (I3A in fractionated coconut oil formulation, Time 28 days (25° C.)); 1.95% in data set [6] (I3A in fractionated coconut oil formulation, Time 43 days (2-8° C.)); 1.91% in data set [6] (I3A in fractionated coconut oil formulation, Time 43 days (25° C.)). The “change in percentage of isoform ‘a’ during storage” value in data set [6] (I3A in fractionated coconut oil, 2-8 and 25° C., 43 days) is given as “no increase in the percentage of isoform ‘a’”.

For orientation: solubility (kinetic) means solubility judged after dilution from a stock solution rather than from solid.
